US8227463B2, “Amorphous body composed of heterocyclic compound, solid dispersion and pharmaceutical preparation each comprising the same, and process for production of the same” (Zenyaku Kogyo Kabushiki Kaisha, priority 2007, dated 2012)

Tests used:
[1] = Changes in the state of the amorphous body on storage, analysed by powder X-ray diffraction; format: physicochemical; conditions: ordinary temperature
Method: When a crystal of the test compound obtained by common procedures was analyzed using the powder X-ray diffraction method, several characteristic peaks at diffraction angles 2θ=5 to 14, and especially at 2θ=7 to 10, were observed (FIG. 1). In contrast, when the preparations obtained in Examples 1 and 2 were analyzed using the powder X-ray diffraction (XRD) method, the peaks at diffraction angles characteristic to a crystalline form were not observed, and it was clear that the test compound was in an amorphized state in these preparations (FIG. 2).
In order to investigate the changes in the state of an amorphous body of the test compound, a solid dispersion produced by the spray drying method with a 1:2.5 test compound to HPMC compounding ratio was stored under certain conditions, and changes in the state of the amorphous body of the test compound were analyzed by powder X-ray diffraction similar to Example 3.
The present tablets were filled into a glass jar, sealed and evaluated for the stability of the amorphous body after 6 months of storage at 40° C. (75% RH).

[2] = Blood concentration measurement of the test compound in rats after oral administration of the preparations; format: in vivo, SD male rats
Method: 7-week old SD male rats were purchased from Charles River Laboratories Japan (Inc.), preliminarily kept for a week and then used for experiments. Fasting began 16 hours before drug administration, and each of the preparations obtained from Examples 1, 4 and 5, when used, was mixed with distilled water to make a 100 mg/5 ml/kg test compound suspension, which was administered orally. Blood was sequentially collected from the tail vein using heparin-treated glass blood collection tubes from 15 min. to 24 or 30 hours after the administration of these preparations, centrifuged (3,000 rpm, 10 min., 4° C.) to obtain plasma, and the blood concentration of the test compound was evaluated (FIG. 3).

Row | Bioavailability / absorbability of amorphized test compound ([2]; compared to the crystallized form) | Compound | Stability of the amorphous state over time [1] | Bioavailability in rats after grain refinement ([2]; grain refinement using a jet mill, a microfluidizer or an agitation mill)
1 | extremely high absorbability | FC(F)c1nc2ccccc2n1-c1nc(N2CCOCC2)nc(N2CCOCC2)n1 [amorphous form of the test compound, 2-(2-difluoromethylbenzimidazol-1-yl)-4,6-dimorpholino-1,3,5-triazine] | stable for a long period of time at ordinary temperature | 
2 |  | FC(F)c1nc2ccccc2n1-c1nc(N2CCOCC2)nc(N2CCOCC2)n1 [test compound, 2-(2-difluoromethylbenzimidazol-1-yl)-4,6-dimorpholino-1,3,5-triazine] |  | an improvement in the bioavailability was not observed
